test system: HCV replicon; assay: Cell-Based HCV Replicon Assay; conditions: Hepatitis C virus; HCV Replicon assay, EC90 given as numeric bound, Table VI; read-out: EC90
Outline: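 EC50 and EC90 taken from sigmoid fits of ΔCT (5B minus GAPDH) as the concentrations raising ΔCT by 1 and 3.2 over baseline, via multiplex real-time RT-PCR on lysates after 3 days. Replicon cells at 5000/well; 10 two-fold dilutions from 25–1 μM, 0.5% DMSO, 10% FBS.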

| Structure (SMILES) | EC90 |
| --- | --- |
| Cc1nc(NCC2(N(C)C)CCOCC2)nc(N[C@@H]2C[C@H](C(C)(C)O)[C@@H](O)[C@H]2O)c1-c1nc2c(C)nccc2s1 [Example 5282] | > 1000 nM |

same assay, conditions: Hepatitis C virus; HCV Replicon assay, EC90 range, Table VI; read-out: EC90

| Structure (SMILES) | EC90 |
| --- | --- |
| CCSC[C@@H](C)Nc1nc(C)c(-c2nc3c(C)nccc3s2)c(N[C@@H]2C[C@H](C(C)(C)O)[C@@H](O)[C@H]2O)n1 [Example 5253] | < 500 nM |
| Cc1nc(N[C@H](C)CSC(C)(C)C)nc(N[C@@H]2C[C@H](C(C)(C)O)[C@@H](O)[C@H]2O)c1-c1nc2c(C)nccc2s1 [Example 5254] | < 500 nM |
| CCS[C@H](C)CNc1nc(C)c(-c2nc3c(C)nccc3s2)c(N[C@@H]2C[C@H](C(C)(C)O)[C@@H](O)[C@H]2O)n1 [Example 5255] | < 500 nM |
| Cc1nc(N[C@H](C)COC(C)C)nc(N[C@@H]2C[C@H](C(C)(C)O)[C@@H](O)[C@H]2O)c1-c1nc2c(C)nccc2s1 [Example 5256] | < 500 nM |
| COC1(CNc2nc(C)c(-c3nc4c(C)nccc4s3)c(N[C@@H]3C[C@H](C(C)(C)O)[C@@H](O)[C@H]3O)n2)CC1 [Example 5257] | < 500 nM |
| Cc1nc(N)nc(N[C@@H]2C[C@H](CO)[C@@H](O)[C@H]2O)c1-c1nc2c(C3CC3)nccc2s1 [Example 5258] | < 500 nM |
| Cc1nc(NC[C@@H](C)OC(C)C)nc(N[C@@H]2C[C@H](C(C)(C)O)[C@@H](O)[C@H]2O)c1-c1nc2c(C)nccc2s1 [Example 5259] | < 500 nM |
| C#CCCNc1nc(C)c(-c2nc3c(C)nccc3s2)c(N[C@@H]2C[C@H](C(C)(C)O)[C@@H](O)[C@H]2O)n1 [Example 5260] | < 500 nM |
| CSCCCNc1nc(C)c(-c2nc3c(C)nccc3s2)c(N[C@@H]2C[C@H](C(C)(C)O)[C@@H](O)[C@H]2O)n1 [Example 5261] | < 500 nM |
| Cc1nc(NCCC(C)(C)C)nc(N[C@@H]2C[C@H](C(C)(C)O)[C@@H](O)[C@H]2O)c1-c1nc2c(C)nccc2s1 [Example 5262] | < 500 nM |
| COC[C@@H](C)Nc1nc(C)c(-c2nc3c(C)nccc3s2)c(N[C@@H]2C[C@H](C(C)(C)O)[C@@H](OC)[C@H]2OC)n1 [Example 5263] | < 500 nM |
| CO[C@@H]1[C@H](OC)[C@@H](C(C)(C)O)C[C@H]1Nc1nc(NC[C@@H](C)OC)nc(C)c1-c1nc2c(C)nccc2s1 [Example 5264] | < 500 nM |
| CO[C@@H]1[C@H](OC)[C@@H](C(C)(C)O)C[C@H]1Nc1nc(NCC2CC2)nc(C)c1-c1nc2c(C)nccc2s1 [Example 5265] | < 500 nM |
| CO[C@@H]1[C@H](OC)[C@@H](C(C)(C)O)C[C@H]1Nc1nc(NCc2c(F)cc(F)cc2F)nc(C)c1-c1nc2c(C)nccc2s1 [Example 5266] | < 500 nM |
| CCSCCNc1nc(C)c(-c2nc3c(C)nccc3s2)c(N[C@@H]2C[C@H](C(C)(C)O)[C@@H](OC)[C@H]2OC)n1 [Example 5267] | < 500 nM |
| CO[C@@H]1[C@H](OC)[C@@H](C(C)(C)O)C[C@H]1Nc1nc(N)nc(C)c1-c1nc2c(C)nccc2s1 [Example 5268] | < 500 nM |
| CCC(O)(CC)[C@H]1C[C@@H](Nc2nc(NCCC3CC3)nc(C)c2-c2nc3c(C)nccc3s2)[C@H](O)[C@@H]1O [Example 5269] | 500 to 5000 nM |
| CCC(O)(CC)[C@H]1C[C@@H](Nc2nc(NCC3(C)CC3)nc(C)c2-c2nc3c(C)nccc3s2)[C@H](O)[C@@H]1O [Example 5270] | < 500 nM |
| CCC(O)(CC)[C@H]1C[C@@H](Nc2nc(NC3CCOCC3)nc(C)c2-c2nc3c(C)nccc3s2)[C@H](O)[C@@H]1O [Example 5271] | < 500 nM |
| CCCCCNc1nc(C)c(-c2nc3c(C)nccc3s2)c(N[C@@H]2C[C@H](C(O)(CC)CC)[C@@H](O)[C@H]2O)n1 [Example 5272] | < 500 nM |
| CCC(O)(CC)[C@H]1C[C@@H](Nc2nc(N)nc(C)c2-c2nc3c(C)nccc3s2)[C@H](O)[C@@H]1O [Example 5273] | < 500 nM |

| Structure (SMILES) | EC90 |
| --- | --- |
| COC[C@@H](C)Nc1nc(C)c(-c2nc3c(C)nccc3s2)c(N[C@@H]2C[C@H](C(C)(C)OC)[C@@H](O)[C@H]2O)n1 [Example 5274] | < 500 nM |
| CO[C@H](C)CNc1nc(C)c(-c2nc3c(C)nccc3s2)c(N[C@@H]2C[C@H](C(C)(C)OC)[C@@H](O)[C@H]2O)n1 [Example 5275] | < 500 nM |
| COC(C)(C)[C@H]1C[C@@H](Nc2nc(NCC3CC3)nc(C)c2-c2nc3c(C)nccc3s2)[C@H](O)[C@@H]1O [Example 5276] | < 500 nM |
| COC(C)(C)[C@H]1C[C@@H](Nc2nc(NCc3c(F)cc(F)cc3F)nc(C)c2-c2nc3c(C)nccc3s2)[C@H](O)[C@@H]1O [Example 5277] | < 500 nM |
| CCSCCNc1nc(C)c(-c2nc3c(C)nccc3s2)c(N[C@@H]2C[C@H](C(C)(C)OC)[C@@H](O)[C@H]2O)n1 [Example 5278] | < 500 nM |
| COC(C)(C)[C@H]1C[C@@H](Nc2nc(N)nc(C)c2-c2nc3c(C)nccc3s2)[C@H](O)[C@@H]1O [Example 5279] | < 500 nM |
| Cc1nc(NCCSc2ccccc2)nc(N[C@@H]2C[C@H](C(C)(C)O)[C@@H](O)[C@H]2O)c1-c1nc2c(C)nccc2s1 [Example 5280] | < 500 nM |
| Cc1nc(NCCS(N)(=O)=O)nc(N[C@@H]2C[C@H](C(C)(C)O)[C@@H](O)[C@H]2O)c1-c1nc2c(C)nccc2s1 [Example 5281] | 500 to 5000 nM |
| COC[C@@H](C)Nc1nc(C)c(-c2nc3c(C)nccc3s2)c(N[C@@H]2C[C@H](C(C)C)[C@@H](O)[C@H]2O)n1 [Example 5283] | < 500 nM |
| Cc1nc(NCC2CC2)nc(N[C@@H]2C[C@H](C(C)C)[C@@H](O)[C@H]2O)c1-c1nc2c(C)nccc2s1 [Example 5284] | < 500 nM |
| Cc1nc(NC2CC2)nc(N[C@@H]2C[C@H](C(C)C)[C@@H](O)[C@H]2O)c1-c1nc2c(C)nccc2s1 [Example 5285] | < 500 nM |
| Cc1nc(N)nc(N[C@@H]2C[C@H](C(C)C)[C@@H](O)[C@H]2O)c1-c1nc2c(C)nccc2s1 [Example 5286] | < 500 nM |
| COCCC1(CNc2nc(C)c(-c3nc4c(C)nccc4s3)c(N[C@@H]3C[C@H](C(C)(C)O)[C@@H](O)[C@H]3O)n2)CCOCC1 [Example 5287] | < 500 nM |
| Cc1nc(NCCS(=O)(=O)N(C)C)nc(N[C@@H]2C[C@H](C(C)(C)O)[C@@H](O)[C@H]2O)c1-c1nc2c(C)nccc2s1 [Example 5288] | < 500 nM |
| Cc1nc(NCCS(=O)(=O)NC(C)(C)C)nc(N[C@@H]2C[C@H](C(C)(C)O)[C@@H](O)[C@H]2O)c1-c1nc2c(C)nccc2s1 [Example 5289] | < 500 nM |
| Cc1nc(NCC2CC2)nc(N[C@@H]2C[C@H](Cc3nccs3)[C@@H](O)[C@H]2O)c1-c1nc2cnccc2s1 [Example 5290] | < 500 nM |
| Cc1nc(NC(C)C2CC(F)(F)C2)nc(N[C@@H]2C[C@H](CO)[C@@H](O)[C@H]2O)c1-c1nc2c(C)nccc2s1 (stereo partly shown) [Example 5291] | < 500 nM |
| CO[C@H]1C[C@@H](CNc2nc(C)c(-c3nc4c(C5CC5)nccc4s3)c(N[C@@H]3C[C@H](CO)[C@@H](O)[C@H]3O)n2)C1 [Example 5292] | < 500 nM |
| CCO[C@H]1C[C@@H](CNc2nc(C)c(-c3nc4c(C5CC5)nccc4s3)c(N[C@@H]3C[C@H](CO)[C@@H](O)[C@H]3O)n2)C1 [Example 5293] | < 500 nM |
| Cc1nc(NCC2CC(C)C2)nc(N[C@@H]2C[C@H](CO)[C@@H](O)[C@H]2O)c1-c1nc2c(C3CC3)nccc2s1 (stereo partly shown) [Example 5294] | < 500 nM |
| Cc1nc(NCC2CC2)nc(N[C@@H]2C[C@H](c3nccs3)[C@@H](O)[C@H]2O)c1-c1nc2c(C)nccc2s1 [Example 5295] | < 500 nM |

From patent publication US9433621B2, “Substituted pyridine and pyrimidine derivatives and their use in treating viral infections” (Merck Sharp & Dohme Corp., priority 2010, dated 2016)
